From US6949586B2, “Synergistic composition of trans-tetracos-15-enoic acid and Apocynin and method of treatment for hepatotoxicity” (Council of Scientific Research, priority 2002, dated 2005)

Columns and labels:
Type in all cases: in vivo
[1] = test system: bile flow and bile solids; experiment: Chloretic activity: bile flow and bile solids after bile duct cannulation; conditions: rats, 50 mg kg−1 i.d.; bile collected 0-5 hours; mean ± SE
From the text: The liver, by producing bile, plays an important role in digestion. The presence of bile in the intestine is necessary to accomplish the digestion and absorption of fats as well as absorption of the fat-soluble vitamins—A, D, E & K. Bile is also an important vehicle of excretion. It removes many drugs, toxins, bile pigments and various inorganic substances either derived from the diet or synthesized by the body as cholesterol or as cholic acid.
Effect on the liver bile flow of test drug and that of vehicle is carried out after cannulating the bile duct in normal anaesthesied rats. Bile collected is from each animal from 0-5 hours (Klaassen, 1969, Donal et al. 1953). (Table 5)

[2] = test system: Acetaminophen (APAP) induced hepatotoxicity; experiment: Paracetamol (Acetaminophen, APAP) induced hepatotoxicity after diethyl-ether inhalation; conditions: mice, 50 mg kg−1 p.o., mean ± S.E.
From the text: Paracetamol (APAP, Acetaminophen): It is a therapeutic agent widely used as analgesic/antipyretic drug. When taken in large doses it causes hepatic necrosis which leads to biochemical changes having clinical features similar to those of acute viral hepatitis in humans (Proudfoot and Wright, 1970). The similar effect is observed in animals. The toxic effect can be potentiated if it is given several hours after the anesthetic ether inhalation (Wells et. al., 1986). Liver injury is induced by injecting paracetamol (200 mg.kg^-1) interaperitoneally in normal saline (pH 9.4) six hour after inhalation of anesthetic ether (4 ml/4 min/6 animals) in a closed chamber. The control animals received the equal volume of vehicle. […] (Table 2) GPT and GOT: Pyruvate formed by transamination reaction is determined spectrophotometrically after reaction with 2,4-dinitrophenylhydrazine (Reitman and Frankel, 1957). ALP: p-nitrophenol formed in alkaline medium is measured spectrophotometrically using p-nitrophenyl phosphate as substrate (Walter and Schutt, 1974). Bilirubin : Total bilirubin is measured by diazotization reaction with NaNO2 (Malloy and Evelyn, 1937) Triglycerides: Triglycerides from serum are extracted with isopropanol and sopanified with KOH. The liberated glycerol is converted to formaldehyde by periodate and determined after reaction with acetyl acetone. […]

[3] = test system: galactosamine, paracetamol and CCl4 as hepatotoxins; experiment: Earlier RRL Jammu study of hepatoprotective effect against galactosamine, paracetamol and CCl4; conditions: synthesized constituent; silymarin as reference material

C[C@H](CCC(=O)O)[C@H]1CC[C@H]2[C@@H]3C(=O)C[C@@H]4CC(=O)CC[C@]4(C)[C@H]3CC(=O)[C@]12C [DHC, Dehydrocholic acid]
Bile flow (ml %), % Increase (as compared to normal) [1]: 38.40 ± 2.76%
Bile solids (mg %), % Increase (as compared to normal) [1]: 28.13 ± 3.89%

CCCCCCCC/C=C/CCCCCCCCCCCCCC(=O)O [TCA, trans-tetracos-15-enoic acid]
Hepatic Lipid Peroxidation [2]: 44.24 ± 2.22 n moles MDA/g liver
hepatoprotective effect against galactosamine, paracetamol and CCl4 as hepatotoxins [3]: dose related hepatoprotective effect
